Test results from patent US20220378739A1, “NATURAL KILLER CELL IMMUNOTHERAPY FOR THE TREATMENT OF GLIOBLASTOMA AND OTHER CANCERS” (BOARD OF REGENTS, THE UNIVERSITY OF TEXAS SYSTEM, priority 2019, published 2022).

How the values were obtained:
patient-derived GSCs = assay: Xenogeneic (PDX) NSG mouse model of GBM; assay type: in vivo
Experimental: To test this prediction, a PDX mouse model of patient-derived GSC was used, in which, ffLuc+ patient-derived GSCs (0.5×10^6) were stereotactically implanted on day 0 through a guide-screw into the right forebrain of NOD/SCID/IL2Rγc null mice (n=4-5 per group). After 7 days, the mice were treated intratumorally with 2.0×10^6 human NK cells every 7 days for 11 weeks (FIG. 5A) with either galunisertib to block the TGF-β signaling or cilengitide to block the integrin pathway. Galunisertib was administered five times a week by oral gavage and cilengitide three times a week by intraperitoneal injection. Animals implanted with tumor that were either untreated or received NK cells alone, galunisertib alone or cilengitide alone served as controls.
To assess the anti-tumor effect of NK cells against GSCs in vivo, a NOD/SCID IL-2R7null (NSG) human xenograft model (Jackson Laboratories, Bar Harbor, Me.) was used. Intracranial implantation of GSCs into male mice was performed as previously described^55. A total of 60 mice were used. 0.5×10^5 GSCs were implanted intracranially into the right frontal lobe of 5 week old NSG mice using a guide-screw system implanted within the skull. To increase uniformity of xenograft uptake and growth, cells were injected into 10 animals simultaneously using a multiport Microinfusion Syringe Pump (Harvard Apparatus, Holliston, Mass.). Animals were anesthetized with xylazine/ketamine during the procedure. For in vivo bioluminescent imaging, GSCs were engineered to express luciferase by lentivirus transduction. Kinetics of tumor growth was monitored using weekly bioluminescence imaging (BLI; Xenogen-IVIS 200 Imaging system; Caliper, Waltham, Mass.). Signal quantitation in photons/second (p/s) was performed by determining the photon flux rate within standardized regions of interest (ROI) using Living Image software (Caliper). […] expanded donor peripheral blood NK cells^56 were injected intracranially via the guide-screw at day 7 post tumor implantation, and then every 7 days for 11 weeks. Mice were treated with either cilengitide or galunisertib (both from MCE Med Chem Express, Monmouth Junction, NJ) in the presence or absence of intracranial NK cell injection. Cilengitide was administered intraperitoneally 3 times a week starting at day 1 (250 μg/100 μl PBS) while galunisertib was administered orally (75 mg/kg) by gavage 5 days a week starting at day 1 (see FIG. 5A). […]
Brain tissue specimens from untreated control mice, mice treated with either NK cells alone, cilengitide alone, galunisertib alone or with combination therapy of NK+ cilengitide or NK+ galunisertib were collected. […] Sections lacking tumor were also evaluated for evidence of meningoencephalitis using a Leica DM 2500 light microscope by a board-certified veterinary pathologist. […]

GSC targets = assay: NK cell functional assay (51Cr release; CD107a, IFN-γ, TNF-α) against GSC targets after co-culture with GSCs; assay type: cell-based, human; conditions: 48 hours co-culture with GSCs 1:1; inhibitor 10 μM
Experimental: NK cells were co-cultured for 5 hours with K562 or GSCs target cells at an optimized effector:target ratio of 5:1 together with CD107a PE-CF594 (BD Biosciences), monensin (BD GolgiStopTM) and BFA (Brefeldin A, Sigma Aldrich). NK cells were incubated without targets as the negative control and stimulated with PMA (50 ng/mL) and ionomycin ([…], Sigma Aldrich) as positive control. Cells were collected, washed and stained with surface antibodies (mentioned above), fixed/permeabilized (BD Biosciences) and stained with IFN-7 v450 and TNF-α Alexa700 (BD Biosciences) antibodies.
NK cell cytotoxicity was assessed using chromium (siCr) release assay. Briefly, K562 or GSCs target cells were labeled with siCr (PerkinElmer Life Sciences, Boston, Mass.) at 50 μCi/5×10^5 cells for 2 hours. ^51Cr-labeled K562/GSC targets (5×105) were incubated for 4 h with serially diluted magnetically isolated NK cells in triplicate. Supernatants were then harvested and analysed for ^51Cr content.
For studies of NK cell suppression by GSCs and human astrocytes, magnetically selected healthy NK cells were cultured in Serum-free Stem Cell Growth Medium (SCGM; CellGro/CellGenix) supplemented with 5% glutamine, 5 μM HEPES (both from GIBCO/Invitrogen), and 10% FCS (Biosera) in 96-well flat-bottomed plates (Nunc) at 100,000/100D11. […]

Cc1cccc(-c2nn3c(c2-c2ccnc4ccc(C(N)=O)cc24)CCC3)n1 [galunisertib]
tumor bioluminescence (BLI), first experiment (patient-derived GSCs; NK cells intratumorally every 7 days for 11 weeks, galunisertib oral 5 times a week, cilengitide i.p. three times a week): tumor bioluminescence rapidly increased
NK-mediated GBM killing / efficacy in PDX model of GBM (summary statements) (patient-derived GSCs; mouse, in vivo): enhances NK-mediated GBM killing in vivo
GSC-induced NK cell dysfunction: natural cytotoxicity against GSC targets (GSC targets): preserving the natural cytotoxicity of NK cells against K562 or GSC targets
